# Reference: US20240382629A1, “HETEROBIVALENT AND HOMOBIVALENT AGENTS TARGETING FIBROBLAST ACTIVATION PROTEIN ALPHA AND/OR PROSTATE-SPECIFIC MEMBRANE ANTIGEN” (The Johns Hopkins University, priority 2021, published 2024)
# Several values for one entry are separate records, joined by “and”; a condition that tells them apart may be missing. Equal values may be shown once.
# Experiment: Biodistribution of [^18F]JHU122047 with UAMC-01110 blocker
# Format: in vivo, mouse
# Conditions: 60 min; for % ID/g Bladder / % ID/g Blood / % ID/g Brain / % ID/g Fat / % ID/g Femur / % ID/g Heart / % ID/g Kidney / % ID/g Large intestine / % ID/g Liver / % ID/g Lung / % ID/g Muscle / % ID/g Pancreas / % ID/g Salivery gland / % ID/g Small intestine / % ID/g Spleen / % ID/g Stomach / % ID/g Tumor: individual mouse
# [1] = NOD/SCID Model, + Blocker (UAMC-01110)
# [2] = Nude Model, + Blocker (UAMC-01110)
structure (smiles),measurement,setting,value
N#C[C@@H]1CCCN1C(=O)CNC(=O)c1ccnc2ccc(OCCCNC(=O)[C@H](CCNC(=O)c3ccc([18F])nc3)NC(=O)CN3CCN(CC(=O)[O-])CCN(CC(=O)[O-])CCN(CC(=O)[O-])CC3)cc12.[In+3] [[^18F]Sri-08-51],% ID/g Bladder,[1],13.35 % ID/g and 61.94 % ID/g
same,% ID/g Blood,[1],0.22 % ID/g and 0.40 % ID/g
same,% ID/g Brain,[1],0.02 % ID/g and 1.02 % ID/g
same,% ID/g Fat,[1],0.06 % ID/g
same,% ID/g Femur,[1],0.88 % ID/g and 0.38 % ID/g
same,% ID/g Heart,[1],0.11 % ID/g and 0.25 % ID/g
same,% ID/g Kidney,[1],1.42 % ID/g and 1.40 % ID/g
same,% ID/g Large intestine,[1],0.19 % ID/g and 0.35 % ID/g
same,% ID/g Liver,[1],4.02 % ID/g and 8.14 % ID/g
same,% ID/g Lung,[1],0.32 % ID/g and 0.61 % ID/g
same,% ID/g Muscle,[1],0.07 % ID/g and 0.49 % ID/g
same,% ID/g Pancreas,[1],0.08 % ID/g and 0.17 % ID/g
same,% ID/g Salivery gland,[1],0.45 % ID/g and 0.26 % ID/g
same,% ID/g Small intestine,[1],0.94 % ID/g and 2.12 % ID/g
same,% ID/g Spleen,[1],0.14 % ID/g and 0.32 % ID/g
same,% ID/g Stomach,[1],0.25 % ID/g and 0.45 % ID/g
same,% ID/g Tumor,[1],1.34 % ID/g and 0.91 % ID/g
same,% ID/g Bladder Mean,[1],37.64 % ID/g
same,% ID/g Blood Mean,[1],0.31 % ID/g
same,% ID/g Brain Mean,[1],0.52 % ID/g
same,% ID/g Fat Mean,[1],0.06 % ID/g
same,% ID/g Femur Mean,[1],0.88 % ID/g
same,% ID/g Heart Mean,[1],0.18 % ID/g
same,% ID/g Kidney Mean,[1],1.41 % ID/g
same,% ID/g Large intestine Mean,[1],0.27 % ID/g
same,% ID/g Liver Mean,[1],6.08 % ID/g
same,% ID/g Lung Mean,[1],0.47 % ID/g
same,% ID/g Muscle Mean,[1],0.28 % ID/g
same,% ID/g Pancreas Mean,[1],0.13 % ID/g
same,% ID/g Salivary gland Mean,[1],0.35 % ID/g
same,% ID/g Small intestine Mean,[1],1.53 % ID/g
same,% ID/g Spleen Mean,[1],0.23 % ID/g
same,% ID/g Stomach Mean,[1],0.35 % ID/g
same,% ID/g Tumor Mean,[1],1.13 % ID/g
same,% ID/g Bladder,"NOD/SCID Model, no blocker",44.77 % ID/g and 23.08 % ID/g
same,% ID/g Blood,"NOD/SCID Model, no blocker",4.18 % ID/g and 5.83 % ID/g
same,% ID/g Brain,"NOD/SCID Model, no blocker",0.26 % ID/g and 0.25 % ID/g
same,% ID/g Fat,"NOD/SCID Model, no blocker",2.81 % ID/g and 0.45 % ID/g
same,% ID/g Femur,"NOD/SCID Model, no blocker",4.83 % ID/g and 5.16 % ID/g
same,% ID/g Heart,"NOD/SCID Model, no blocker",1.74 % ID/g and 2.39 % ID/g
same,% ID/g Kidney,"NOD/SCID Model, no blocker",2.10 % ID/g and 2.19 % ID/g
same,% ID/g Large intestine,"NOD/SCID Model, no blocker",1.91 % ID/g and 1.87 % ID/g
same,% ID/g Liver,"NOD/SCID Model, no blocker",3.23 % ID/g and 4.21 % ID/g
same,% ID/g Lung,"NOD/SCID Model, no blocker",2.77 % ID/g and 2.76 % ID/g
same,% ID/g Muscle,"NOD/SCID Model, no blocker",2.84 % ID/g and 2.83 % ID/g
same,% ID/g Pancreas,"NOD/SCID Model, no blocker",3.99 % ID/g and 4.82 % ID/g
same,% ID/g Salivery gland,"NOD/SCID Model, no blocker",12.48 % ID/g and 14.32 % ID/g
same,% ID/g Small intestine,"NOD/SCID Model, no blocker",2.09 % ID/g
same,% ID/g Spleen,"NOD/SCID Model, no blocker",1.27 % ID/g and 1.71 % ID/g
same,% ID/g Stomach,"NOD/SCID Model, no blocker",1.65 % ID/g and 1.75 % ID/g
same,% ID/g Tumor,"NOD/SCID Model, no blocker",16.64 % ID/g and 15.98 % ID/g
same,% ID/g Bladder Mean,"NOD/SCID Model, no blocker",33.92 % ID/g
same,% ID/g Blood Mean,"NOD/SCID Model, no blocker",5.01 % ID/g
same,% ID/g Brain Mean,"NOD/SCID Model, no blocker",0.25 % ID/g
same,% ID/g Fat Mean,"NOD/SCID Model, no blocker",1.63 % ID/g
same,% ID/g Femur Mean,"NOD/SCID Model, no blocker",5.00 % ID/g
same,% ID/g Heart Mean,"NOD/SCID Model, no blocker",2.07 % ID/g
same,% ID/g Kidney Mean,"NOD/SCID Model, no blocker",2.15 % ID/g
same,% ID/g Large intestine Mean,"NOD/SCID Model, no blocker",1.89 % ID/g
same,% ID/g Liver Mean,"NOD/SCID Model, no blocker",3.72 % ID/g
same,% ID/g Lung Mean,"NOD/SCID Model, no blocker",2.77 % ID/g
same,% ID/g Muscle Mean,"NOD/SCID Model, no blocker",2.84 % ID/g
same,% ID/g Pancreas Mean,"NOD/SCID Model, no blocker",4.40 % ID/g
same,% ID/g Salivary gland Mean,"NOD/SCID Model, no blocker",13.40 % ID/g
same,% ID/g Small intestine Mean,"NOD/SCID Model, no blocker",2.09 % ID/g
same,% ID/g Spleen Mean,"NOD/SCID Model, no blocker",1.49 % ID/g
same,% ID/g Stomach Mean,"NOD/SCID Model, no blocker",1.70 % ID/g
same,% ID/g Tumor Mean,"NOD/SCID Model, no blocker",16.31 % ID/g
same,% ID/g Bladder,[2],0.22 % ID/g and 0.74 % ID/g
same,% ID/g Blood,[2],0.10 % ID/g
same,% ID/g Brain,[2],0.01 % ID/g
same,% ID/g Fat,[2],0.03 % ID/g and 0.01 % ID/g
same,% ID/g Femur,[2],0.12 % ID/g
same,% ID/g Heart,[2],0.05 % ID/g
same,% ID/g Kidney,[2],1.19 % ID/g and 1.05 % ID/g
same,% ID/g Large intestine,[2],0.08 % ID/g and 0.11 % ID/g
same,% ID/g Liver,[2],1.88 % ID/g and 2.01 % ID/g
same,% ID/g Lung,[2],0.21 % ID/g and 0.22 % ID/g
same,% ID/g Muscle,[2],0.07 % ID/g and 0.04 % ID/g
same,% ID/g Pancreas,[2],0.05 % ID/g
same,% ID/g Salivery gland,[2],0.07 % ID/g and 0.08 % ID/g
same,% ID/g Small intestine,[2],3.50 % ID/g and 2.97 % ID/g
same,% ID/g Spleen,[2],0.08 % ID/g
same,% ID/g Stomach,[2],0.08 % ID/g and 0.15 % ID/g
same,% ID/g Tumor,[2],0.17 % ID/g and 0.18 % ID/g
same,% ID/g Bladder Mean,[2],0.48 % ID/g
same,% ID/g Blood Mean,[2],0.10 % ID/g
same,% ID/g Brain Mean,[2],0.01 % ID/g
same,% ID/g Fat Mean,[2],0.02 % ID/g
same,% ID/g Femur Mean,[2],0.12 % ID/g
same,% ID/g Heart Mean,[2],0.05 % ID/g
same,% ID/g Kidney Mean,[2],1.12 % ID/g
same,% ID/g Large intestine Mean,[2],0.09 % ID/g
same,% ID/g Liver Mean,[2],1.95 % ID/g
same,% ID/g Lung Mean,[2],0.21 % ID/g
same,% ID/g Muscle Mean,[2],0.05 % ID/g
same,% ID/g Pancreas Mean,[2],0.05 % ID/g
same,% ID/g Salivary gland Mean,[2],0.08 % ID/g
same,% ID/g Small intestine Mean,[2],3.24 % ID/g
same,% ID/g Spleen Mean,[2],0.08 % ID/g
same,% ID/g Stomach Mean,[2],0.11 % ID/g
same,% ID/g Tumor Mean,[2],0.18 % ID/g
same,% ID/g Bladder,"Nude Model, no blocker",1.18 % ID/g and 2.99 % ID/g
same,% ID/g Blood,"Nude Model, no blocker",3.06 % ID/g and 3.20 % ID/g
same,% ID/g Brain,"Nude Model, no blocker",0.09 % ID/g and 0.08 % ID/g
same,% ID/g Fat,"Nude Model, no blocker",0.52 % ID/g and 0.77 % ID/g
same,% ID/g Femur,"Nude Model, no blocker",4.44 % ID/g and 3.86 % ID/g
same,% ID/g Heart,"Nude Model, no blocker",1.35 % ID/g and 1.52 % ID/g
same,% ID/g Kidney,"Nude Model, no blocker",1.69 % ID/g and 1.72 % ID/g
same,% ID/g Large intestine,"Nude Model, no blocker",1.20 % ID/g and 1.30 % ID/g
same,% ID/g Liver,"Nude Model, no blocker",1.81 % ID/g and 1.93 % ID/g
same,% ID/g Lung,"Nude Model, no blocker",2.03 % ID/g and 2.25 % ID/g
same,% ID/g Muscle,"Nude Model, no blocker",1.86 % ID/g and 1.93 % ID/g
same,% ID/g Pancreas,"Nude Model, no blocker",3.94 % ID/g and 3.77 % ID/g
same,% ID/g Salivery gland,"Nude Model, no blocker",7.74 % ID/g
same,% ID/g Small intestine,"Nude Model, no blocker",1.93 % ID/g and 1.63 % ID/g
same,% ID/g Spleen,"Nude Model, no blocker",0.90 % ID/g and 1.02 % ID/g
same,% ID/g Stomach,"Nude Model, no blocker",1.06 % ID/g and 1.16 % ID/g
same,% ID/g Tumor,"Nude Model, no blocker",10.87 % ID/g and 13.08 % ID/g
same,% ID/g Bladder Mean,"Nude Model, no blocker",2.09 % ID/g
same,% ID/g Blood Mean,"Nude Model, no blocker",3.13 % ID/g
same,% ID/g Brain Mean,"Nude Model, no blocker",0.09 % ID/g
same,% ID/g Fat Mean,"Nude Model, no blocker",0.64 % ID/g
same,% ID/g Femur Mean,"Nude Model, no blocker",4.15 % ID/g
same,% ID/g Heart Mean,"Nude Model, no blocker",1.43 % ID/g
same,% ID/g Kidney Mean,"Nude Model, no blocker",1.70 % ID/g
same,% ID/g Large intestine Mean,"Nude Model, no blocker",1.25 % ID/g
same,% ID/g Liver Mean,"Nude Model, no blocker",1.87 % ID/g
same,% ID/g Lung Mean,"Nude Model, no blocker",2.14 % ID/g
same,% ID/g Muscle Mean,"Nude Model, no blocker",1.90 % ID/g
same,% ID/g Pancreas Mean,"Nude Model, no blocker",3.85 % ID/g
same,% ID/g Salivary gland Mean,"Nude Model, no blocker",8.22 % ID/g
same,% ID/g Small intestine Mean,"Nude Model, no blocker",1.78 % ID/g
same,% ID/g Spleen Mean,"Nude Model, no blocker",0.96 % ID/g
same,% ID/g Stomach Mean,"Nude Model, no blocker",1.11 % ID/g
same,% ID/g Tumor Mean,"Nude Model, no blocker",11.97 % ID/g
